# How the values were obtained:
# [1] = test system: leaf pieces derived from the tobacco to which the control DNA (T-DNA region of plasmid pBI121S) was introduced; experiment: Herbicidal damage of tobacco leaf pieces on MS agar medium containing compound (II); assay type: cell-based, Nicotiana tabacum strain SR1; conditions: MS agar medium containing 0.1 mg/L of compound (II), in the light at room temperature, 7th day of culturing
# Protocol: Then, according to the method described in Manual for Gene Manipulation of Plant (by Hirofumi UCHIMIYA, Kodan-sha Scientific, 1992), the gene was introduced into tobacco. Agrobacterium strains bearing the above plasmids were each cultured at 28° C. overnight in LB medium containing 300 mg/L streptomycin, 100 mg/L rifampicin and 25 mg/L kanamycin, and then leaf pieces of tobacco (Nicotiana tabacum strain SR1) cultured sterilely were dipped in the liquid culture medium. The leaf pieces were planted and cultured at room temperature for 2 days in the light in MS agar medium (MS inorganic salts, MS vitamins, 3% sucrose and 0.8% agar; described in Murashige T. and Skoog F., Physiol. Plant. (1962) 15, p 473) containing 0.1 mg/L of naphthalene acetic acid and 1.0 mg/L of benzyl aminopurine. Then, the leaf pieces were washed with sterilized water and cultured for 7 days on MS agar medium containing 0.1 mg/L of naphthalene acetic acid, 1.0 mg/L of benzyl aminopurine and 500 mg/L of cefotaxime. Next, the leaf pieces were transplanted and cultured in MS agar medium containing 0.1 mg/L of naphthalene acetic acid, 1.0 mg/L of benzyl aminopurine, 500 mg/L of cefotaxime and 100 mg/L of kanamycin. The culture was conducted continuously for 4 months while transplanting the leaf pieces to fresh medium of the same composition at intervals of 4 weeks. […]
# [2] = test system: present invention protein (A21); experiment: Detection of the ability to convert compound (II) to compound (III), E. coli pKSN1543BF extract; assay type: in vitro ADME, Streptomyces misawanensis IFO 13855T; conditions: 3 ppm of compound (II) labeled with 14C, components A, B, 10 minutes at 30° C.
# Protocol: Reaction solutions of 30 μl were prepared and maintained for 10 minutes at 30° C. The reaction solutions consisted of a 0.1M potassium phosphate buffer (pH7.0) containing 3 ppm of compound (II) labeled with ^14C, 2 mM of β-NADPH (hereinafter, referred to as “component A”) (Oriental Yeast Company), 2 mg/ml of a ferredoxin derived from spinach (hereinafter referred to as “component B”) (Sigma Company), 0.1 U/ml of ferredoxin reductase (hereinafter, referred to as “component C”) (Sigma Company) and 23 μl of the supernatant fraction recovered in Example 32(2). Similarly to Example 4(3), the reaction solutions after the maintenance were extracted with ethyl acetate and the extracted layers were TLC analyzed. […] A spot corresponding to compound (III) was detected from the reaction solution containing E. coli pKSN849AF extract. In contrast, such a spot was not detected from the reaction solution containing E. coli pKSN2 extract.
# Similarly to Example 32(3), reaction solutions of 30 μl were prepared and maintained for 10 minutes at 30° C. […] The reaction solutions after the maintenance were extracted with ethyl acetate and the extracted layers were TLC analyzed. […] A spot corresponding to compound (III) was detected from the reaction solution containing E. coli pKSN1543BF extract. In contrast, such a spot was not detected from the reaction solution containing E. coli pKSN2 extract.
# [3] = test system: Barnyardgrass; experiment: Herbicidal activity test, soil surface treatment; assay type: in vivo, Echinochloa crus-galli; set-up: key: 0: situations in which the condition of sprouting or vegetation at the time of examination of the plant utilized for the test was compared with and showed totally or substantially no difference with that of the untreated application; 10: situations in which the plant completely withered or the sprouting or vegetation was completely suppressed; conditions: 500 g/ha, sprayed onto the surface of the soil after seeding, investigated after 19 days in a greenhouse
# Protocol: Soil was packed into a round plastic pot having a diameter of 10 cm and depth of 10 cm. Barnyardgrass, Blackgrass, Ivyleaf morningglory were seeded. Five (5) parts of the test compound, 6 parts of sorpol3005X (Toho Chemical Company) and 89 parts of xylene were well mixed to produce an emulsion. A certain amount thereof was diluted with water containing 0.1% (v/v) of a sticking agent at a proportion of 1000 L for 1 hectare and was spread uniformly with a spray-gun onto the surface of the soil. After cultivating the plants for 19 days in a greenhouse, the herbicidal activity was investigated.
# In the above Tables 3 and 4, the strength of the herbicidal activity is shown stepwise as 0, 1, 2, 3, 4, 5, 6, 7, 8, 9, and 10.
# [4] = test system: present invention protein (A24); experiment: Metabolism of compounds by the present invention protein (A24), reaction solution, HPLC; assay type: in vitro ADME, Streptomyces rutgersensis IFO 15875T; conditions: 12.5 ppm of compound, components A, B, C, 20 μl supernatant fraction of Example 65(2), 30° C. for 10 minutes
SMILES,herbicidal damage of the leaf pieces [1],spot corresponding to compound (III) labeled with 14C (TLC) [2],Herbicidal Activity Barnyardgrass [3],concentration of the compound detected from metabolism solution (A24) compared to control solution (A24) [4]
C[C@@H](Oc1cc(-n2c(=O)cc(C(F)(F)F)n(C)c2=O)c(F)cc1Cl)C(=O)O [compound (II)],turned white and withered,detected,10,
Cn1c(C(F)(F)F)cc(=O)n(-c2cc(Oc3cccnc3OCC(=O)O)c(Cl)cc2F)c1=O [compound (XII)],,,,lower
